The supplement of paper PMC13380429

Assays:
Conditions in all cases: 72 h
Caco-2 [1] = test: cell viability relative to DMSO; higher = less toxic
HepG2 [2] = test: as above
U2OS [3] = test: as above
Vero E6 [4] = test: as above
Caco-2 [5] = test: relative viability EC50 (midpoint between 100% and the lowest measured viability); higher = less toxic
HepG2 [6] = test: as above
U2OS [7] = test: as above
Vero E6 [8] = test: as above
Caco-2 [9] = test: drug sensitivity score (DSS) for viability; higher = more toxic; extreme values may be limits of the assay
HepG2 [10] = test: as above
U2OS [11] = test: as above
Vero E6 [12] = test: as above
Calu-3 [13] = test: cell viability relative to DMSO; higher = less toxic
Calu-3 [14] = test: drug sensitivity score (DSS) for viability; higher = more toxic; extreme values may be limits of the assay
Calu-3 [15] = test: relative viability EC50 (midpoint between 100% and the lowest measured viability); higher = less toxic

SMILES | cell viability (Caco-2 [1]; 1 nM) [%] | cell viability (Caco-2 [1]; 10 nM) [%] | cell viability (Caco-2 [1]; 100 nM) [%] | cell viability (Caco-2 [1]; 1000 nM) [%] | cell viability (Caco-2 [1]; 10000 nM) [%] | cell viability (HepG2 [2]; 1 nM) [%] | cell viability (HepG2 [2]; 10 nM) [%] | cell viability (HepG2 [2]; 100 nM) [%] | cell viability (HepG2 [2]; 1000 nM) [%] | cell viability (HepG2 [2]; 10000 nM) [%] | cell viability (U2OS [3]; 1 nM) [%] | cell viability (U2OS [3]; 10 nM) [%] | cell viability (U2OS [3]; 100 nM) [%] | cell viability (U2OS [3]; 1000 nM) [%] | cell viability (U2OS [3]; 10000 nM) [%] | cell viability (Vero E6 [4]; 1 nM) [%] | cell viability (Vero E6 [4]; 10 nM) [%] | cell viability (Vero E6 [4]; 100 nM) [%] | cell viability (Vero E6 [4]; 1000 nM) [%] | cell viability (Vero E6 [4]; 10000 nM) [%] | relative viability EC50 (Caco-2 [5]) [µM] | relative viability EC50 (HepG2 [6]) [µM] | relative viability EC50 (U2OS [7]) [µM] | relative viability EC50 (Vero E6 [8]) [µM] | drug sensitivity score (Caco-2 [9]) | drug sensitivity score (HepG2 [10]) | drug sensitivity score (U2OS [11]) | drug sensitivity score (Vero E6 [12]) | cell viability (Calu-3 [13]; 1 nM) [%] | cell viability (Calu-3 [13]; 10 nM) [%] | cell viability (Calu-3 [13]; 100 nM) [%] | cell viability (Calu-3 [13]; 1000 nM) [%] | cell viability (Calu-3 [13]; 10000 nM) [%] | drug sensitivity score (Calu-3 [14]) | relative viability EC50 (Calu-3 [15]) [µM]
Cc1nnc(-c2ccc3occ(-c4ccc([S+](C)[O-])cc4)c3c2)o1 (stereo unspecified) [TCS2002] | 103 | 96.7 | 98.5 | 108 | 108 | 94 | 97.2 | 99.3 | 93 | 112 | 102 | 103 | 101 | 99.3 | 98.5 | 96.1 | 95.9 | 99.1 | 90.6 | 101 | > 10 | > 10 | > 10 | > 10 | 0 | 0 | 0 | 0 |  |  |  |  |  |  | 
N[C@@H]1[C@H]2CN(c3nc4c(cc3F)c(=O)c(C(=O)O)cn4-c3ccc(F)cc3F)C[C@@H]12 [trovafloxacin] | 95.6 | 122 | 84.7 | 85.5 | 71.5 | 115 | 104 | 102 | 106 | 29.9 | 101 | 108 | 99.8 | 105 | 89.9 | 95.7 | 98.8 | 102 | 110 | 98.2 |  | 3.6 | > 10 | > 10 | 3.1 | 3.4 | 0 | 0 | 102 | 103 | 92.4 | 97.6 | 64.1 | 2.1 | 
O=C(Cn1ccnc1[N+](=O)[O-])NCc1ccccc1 [benznidazole] | 98 | 98.8 | 96.4 | 93.2 | 96 | 97.3 | 95.9 | 93.7 | 94.4 | 94.2 | 98 | 97.3 | 92.4 | 90 | 99.8 | 97.3 | 98.5 | 96.4 | 101 | 98.1 | > 10 | > 10 | > 10 | > 10 | 0 | 0 | 0 | 0 |  |  |  |  |  |  | 
Nc1nc(Cl)nc2c1ncn2[C@@H]1O[C@H](CO)[C@@H](O)[C@H]1O [2-chloroadenosine] |  |  |  |  |  | 99.9 | 101 | 104 | 104 | 81.8 | 101 | 96.1 | 102 | 107 | 101 | 93.4 | 102 | 103 | 102 | 93.7 |  | > 10 | > 10 | > 10 |  | 0.3 | 0 | 0 | 110 | 103 | 98.8 | 113 | 84.5 | 0.1 | > 10
CCCOc1ccc(S(=O)(=O)N2CCN(CCO)CC2)cc1-c1nc2c(CCC)cn(CC)c2c(=O)[nH]1 [mirodenafil] | 105 | 111 | 96.5 | 107 | 85.6 | 105 | 98.1 | 108 | 100 | 99.7 | 102 | 104 | 99.6 | 103 | 96.3 | 100 | 101 | 101 | 94.9 | 102 | > 10 | > 10 | > 10 | > 10 | 0.1 | 0 | 0 | 0 |  |  |  |  |  |  | 
CC(=O)O[C@]1(C(C)=O)CC[C@H]2[C@@H]3C=C(Cl)C4=CC(=O)CC[C@]4(C)[C@H]3CC[C@@]21C [chlormadinone-acetate] | 101 | 106 | 115 | 98.8 | 103 | 98.1 | 98.8 | 100 | 92 | 112 | 97.2 | 92.7 | 96.1 | 90.6 | 95 | 93.2 | 96.9 | 91.9 | 92.5 | 90 | > 10 | > 10 | > 10 | > 10 | 0 | 0 | 0 | 0 |  |  |  |  |  |  | 
O=Cc1ccc(CO)o1 [5-HMF] |  |  |  |  |  |  |  |  |  |  | 99.6 | 99.8 | 104 | 102 | 106 | 103 | 99.9 | 99.7 | 105 | 97.3 |  |  | > 10 | > 10 |  |  | 0 | 0 | 96.6 | 98.2 | 97.3 | 94.5 | 104 | 0 | > 10
C=CC(=O)Nc1cccc(Oc2nc(Nc3ccc(N4CCN(C)CC4)cc3)nc3ccsc23)c1 [olmutinib] | 99.2 | 98.3 | 90.9 | 83.5 | 69 | 95 | 93.5 | 100 | 99.6 | 51 | 100 | 101 | 96.6 | 92.7 | 59.4 | 100 | 98.7 | 96.7 | 92.2 | 5.1 |  |  |  | 2.49 | 3.2 | 2.6 | 3.2 | 6.5 | 110 | 105 | 89 | 68.4 | 14.8 | 8.3 | 1.35
